{
  "source": "patent US20250282799A1",
  "about": "“SUBSTITUTED PYRIDO[4,3-d]PYRIMIDINES AS KRAS MODULATORS” (Alterome Therapeutics, Inc., priority 2023, published 2025)",
  "data": [
    {"system": "KRAS G12V dependent lung adenocarcinoma cell line, NCI-H441", "assay": "Cellular pERK (Thr202/Tyr204) FRET/HTRF assay", "format": "cell-based", "conditions": "Homo sapiens, NCI-H441, cellular pERK (Thr202/Tyr204) HTRF, NCI-H441 cells", "method_in_brief": "(§1)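 NCI-H441 cells (KRAS G12V) were seeded and grown overnight at 37 °C, 5% CO2, then treated with compound in DMSO for 1 hr. Lysates were probed with a Eu3+-cryptate/d2 antibody sandwich against pERK1/2 Thr202/Tyr204 and read by HTRF at 665 nm; IC50 from curve fitting.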", "units": {"IC50": "nM"}, "values": [
      {"smiles": "[2H]C([2H])(F)Oc1c(F)ccc2cc(N)cc(-c3ncc4c(N5CCOC[C@H]6[C@H](F)[C@H]65)nc(OC[C@@]56CCCN5C[C@@]5(CC5(F)F)C6)nc4c3F)c12", "note": "(single isomer, unassigned) [Example 229]", "IC50": "< 50"},
      {"smiles": "[2H]c1c(F)c(C#C)c2c(-c3ncc4c(N5CCOC[C@H]6[C@H](F)[C@H]65)nc(OC([2H])([2H])[C@@]56CCCN5C[C@H](F)C6)nc4c3F)cc(N)cc2c1[2H]", "note": "[Example 273, 5-ethynyl-6-fluoro-4-(8-fluoro-4-((1S,7S,8S)-8-fluoro-5-oxa-2-azabicyclo[5.1.0]octan-2-yl)-2-(((2R,7aS)-2-fluorotetrahydro-1H-pyrrolizin-7a(5H)-yl)methoxy-d2)pyrido[4,3-d]pyrimidin-7-yl)naphthalen-7,8-d2-2-amine]", "IC50": "< 50"},
      {"smiles": "C#Cc1c(F)c(F)cc2cccc(-c3ncc4c(N5CCOC[C@H]6[C@H](F)[C@H]65)nc(OC[C@@]56CCCN5CC(=C(F)F)C6)nc4c3F)c12", "note": "[Example 105, (1S,7S,8S)-2-(2-(((S)-2-(difluoromethylene)tetrahydro-1H-pyrrolizin-7a(5H)-yl)methoxy)-7-(8-ethynyl-6,7-difluoronaphthalen-1-yl)-8-fluoropyrido[4,3-d]pyrimidin-4-yl)-8-fluoro-5-oxa-2-azabicyclo[5.1.0]octane]", "IC50": "< 50"},
      {"smiles": "C#Cc1c(F)ccc2cc(N)cc(-c3ncc4c(N5CCOC[C@H]6[C@H](F)[C@H]65)nc(OC[C@@H]5CCCN5C)nc4c3F)c12", "note": "[Example 288, 5-ethynyl-6-fluoro-4-(8-fluoro-4-((1S,7S,8S)-8-fluoro-5-oxa-2-azabicyclo[5.1.0]octan-2-yl)-2-(((S)-1-methylpyrrolidin-2-yl)methoxy)pyrido[4,3-d]pyrimidin-7-yl)naphthalen-2-amine]", "IC50": "< 50"},
      {"smiles": "[2H]C([2H])(Oc1nc(N2CCOC[C@@H]3[C@@H](Cl)[C@@H]32)c2cnc(-c3cc(N)cc4cccc(C#C)c34)c(F)c2n1)[C@@]12CCCN1[C@H](C)[C@H](F)C2", "note": "[Example 346, 4-(4-((1R,7R,8R)-8-chloro-5-oxa-2-azabicyclo[5.1.0]octan-2-yl)-8-fluoro-2-(((2R,3R,7aS)-2-fluoro-3-methyltetrahydro-1H-pyrrolizin-7a(5H)-yl)methoxy-d2)pyrido[4,3-d]pyrimidin-7-yl)-5-ethynylnaphthalen-2-amine]", "IC50": "500 to 10000"},
      {"smiles": "[2H]C([2H])(F)Oc1c(F)ccc2cc(N)cc(-c3ncc4c(N5CCOC[C@H]6[C@H](F)[C@H]65)nc(OC([2H])([2H])[C@@]56CCCN5C[C@H](F)C6)nc4c3F)c12", "note": "[Example 116, 6-Fluoro-4-(8-fluoro-4-((1S,7S,8S)-8-fluoro-5-oxa-2-azabicyclo[5.1.0]octan-2-yl)-2-(((2R,7aS)-2-fluorotetrahydro-1H-pyrrolizin-7a(5H)-yl)methoxy-d2)pyrido[4,3-d]pyrimidin-7-yl)-5-(fluoromethoxy-d2)naphthalen-2-amine]", "IC50": "< 50"},
      {"smiles": "[2H]C([2H])(Oc1nc(N2CCOC[C@H]3[C@H](F)[C@H]32)c2cnc(-c3cc(N)cc4ccc(F)c(C#C)c34)c(F)c2n1)[C@@]12CCCN1C[C@H](CC#N)C2", "note": "(single isomer, unassigned) [Example 315]", "IC50": "< 50"},
      {"smiles": "C#Cc1c(F)ccc2cc(N)cc(-c3ncc4c(N5CCOC[C@H]6[C@H](F)[C@H]65)nc(OC[C@@]56CCC(C)(C)N5C[C@H](F)C6)nc4c3F)c12", "note": "[Example 239, 5-ethynyl-6-fluoro-4-(8-fluoro-2-(((2R,7aS)-2-fluoro-5,5-dimethyltetrahydro-1H-pyrrolizin-7a(5H)-yl)methoxy)-4-((1S,7S,8S)-8-fluoro-5-oxa-2-azabicyclo[5.1.0]octan-2-yl)pyrido[4,3-d]pyrimidin-7-yl)naphthalen-2-amine]", "IC50": "< 50"},
      {"smiles": "C#Cc1c(F)ccc2cccc(-c3ncc4c(N5CCOC[C@H]6[C@H](F)[C@H]65)nc(OC[C@]56CC(=C)CN5CCC65CC5)nc4c3F)c12", "note": "[Example 166, (1S,7S,8S)-2-(7-(8-Ethynyl-7-fluoronaphthalen-1-yl)-8-fluoro-2-(((R)-6′-methylenetetrahydrospiro[cyclopropane-1,1′-pyrrolizin]-7a′(5′H)-yl)methoxy)pyrido[4,3-d]pyrimidin-4-yl)-8-fluoro-5-oxa-2-azabicyclo[5.1.0]octane]", "IC50": "< 50"},
      {"smiles": "[2H]C([2H])(Oc1nc(N2CC[C@H](C#N)C[C@H]3[C@H](F)[C@H]32)c2cnc(-c3cc(N)cc4ccc(F)c(C#C)c34)c(F)c2n1)[C@@]12CCCN1C[C@H](F)C2", "note": "[Example 306, (1S,5R,7R,8S)-2-(7-(3-amino-8-ethynyl-7-fluoronaphthalen-1-yl)-8-fluoro-2-(((2R,7aS)-2-fluorotetrahydro-1H-pyrrolizin-7a(5H)-yl)methoxy-d2)pyrido[4,3-d]pyrimidin-4-yl)-8-fluoro-2-azabicyclo[5.1.0]octane-5-carbonitrile]", "IC50": "50 to 500"},
      {"smiles": "C#Cc1c(F)ccc2cc(N)cc(-c3ncc4c(N5CCOC[C@H]6[C@H](F)[C@H]65)nc(OC[C@@]56C=C(C)CN5CCC65CC5)nc4c3F)c12", "note": "[Example 244, 5-ethynyl-6-fluoro-4-(8-fluoro-4-((1S,7S,8S)-8-fluoro-5-oxa-2-azabicyclo[5.1.0]octan-2-yl)-2-(((S)-6′-methyl-2′,3′-dihydrospiro[cyclopropane-1,1′-pyrrolizin]-7a′(5′H)-yl)methoxy)pyrido[4,3-d]pyrimidin-7-yl)naphthalen-2-amine]", "IC50": "< 50"},
      {"smiles": "[2H]C([2H])(F)Oc1c(F)ccc2cc(N)cc(-c3ncc4c(N5CCOC[C@H]6[C@H](F)[C@H]65)nc(OC[C@@]56CCCN5C[C@H](C)C6)nc4c3F)c12", "note": "(single isomer, unassigned) [Example 215]", "IC50": "< 50"},
      {"smiles": "[2H]C([2H])([2H])Oc1c(F)cc(F)c2cc(N)cc(-c3ncc4c(N5CCCC[C@H]6[C@H](F)[C@H]65)nc(OC([2H])([2H])[C@@]56CCCN5C[C@H](F)C6)nc4c3F)c12", "note": "[Example 141, 6,8-difluoro-4-(8-fluoro-4-((1S,7R,8S)-8-fluoro-2-azabicyclo[5.1.0]octan-2-yl)-2-(((2R,7aS)-2-fluorotetrahydro-1H-pyrrolizin-7a(5H)-yl)methoxy-d2)pyrido[4,3-d]pyrimidin-7-yl)-5-(methoxy-d3)naphthalen-2-amine]", "IC50": "< 50"}
    ]},
    {"system": "KRAS G12V dependent lung adenocarcinoma cell line, NCI-H441", "assay": "Cellular pERK (Thr202/Tyr204) FRET/HTRF assay", "format": "cell-based", "conditions": "Homo sapiens, NCI-H441, cellular pERK HTRF, NCI-H441 (KRAS G12V) cells", "method_in_brief": "as §1", "units": {"IC50": "nM"}, "values": [
      {"smiles": "C#Cc1c(F)ccc2cc(N)cc(-c3ncc4c(N5CCOC[C@H]6[C@H](Cl)[C@H]65)nc(OC[C@]56CC(=C)CN5CCC65CC5)nc4c3C)c12", "note": "[Example 459, 4-(4-((1S,7S,8S)-8-Chloro-5-oxa-2-azabicyclo[5.1.0]octan-2-yl)-8-methyl-2-(((R)-6′-methylenetetrahydrospiro[cyclopropane-1,1′-pyrrolizin]-7a′(5′H)-yl)methoxy)pyrido[4,3-d]pyrimidin-7-yl)-5-ethynyl-6-fluoronaphthalen-2-amine]", "IC50": "< 50"},
      {"smiles": "C#Cc1c(F)ccc2cc(O)cc(-c3ncc4c(N5CCOC[C@H]6[C@H](F)[C@H]65)nc(OC[C@@]56CCCN5C/C(=C/F)C6)nc4c3C)c12", "note": "[Example 447, 5-ethynyl-6-fluoro-4-(4-((1S,7S,8S)-8-fluoro-5-oxa-2-azabicyclo[5.1.0]octan-2-yl)-2-(((S,E)-2-(fluoromethylene)tetrahydro-1H-pyrrolizin-7a(5H)-yl)methoxy)-8-methylpyrido[4,3-d]pyrimidin-7-yl)naphthalen-2-ol]", "IC50": "< 50"},
      {"smiles": "[2H]C([2H])(Oc1nc(N2CCOC[C@H]3[C@H](F)[C@H]32)c2cnc(-c3cc(O)cc4ccc(F)c(C#C)c34)c(C)c2n1)[C@@]12CCCN1[C@H](C)[C@H](F)C2", "note": "[Example 471, 5-ethynyl-6-fluoro-4-(2-(((2R,3R,7aS)-2-fluoro-3-methyltetrahydro-1H-pyrrolizin-7a(5H)-yl)methoxy-d2)-4-((1S,7S,8S)-8-fluoro-5-oxa-2-azabicyclo[5.1.0]octan-2-yl)-8-methylpyrido[4,3-d]pyrimidin-7-yl)naphthalen-2-ol]", "IC50": "< 50"}
    ]},
    {"system": "KRAS G12V dependent lung adenocarcinoma cell line, NCI-H441", "assay": "Cellular pERK (Thr202/Tyr204) FRET/HTRF assay", "format": "cell-based", "conditions": "Homo sapiens, NCI-H441, pERK HTRF, NCI-H441 cells (KRAS G12V)", "method_in_brief": "as §1", "units": {"IC50": "nM"}, "values": [
      {"smiles": "[2H]C([2H])(Oc1nc(N2CCCO[C@@H]3C[C@@H]32)c2c(OC)nc(-c3cc(N)cc4cc(F)c(F)c(C#C)c34)c(F)c2n1)[C@@]12CCCN1C[C@H](F)C2", "note": "[Example 33, 4-(4-((1R,7S)-2-Oxa-6-azabicyclo[5.1.0]octan-6-yl)-8-fluoro-2-(((2R,7aS)-2-fluorotetrahydro-1H-pyrrolizin-7a(5H)-yl)methoxy-d2)-5-methoxypyrido[4,3-d]pyrimidin-7-yl)-5-ethynyl-6,7-difluoronaphthalen-2-amine]", "IC50": "50 to 500"},
      {"smiles": "[2H]C([2H])(Oc1nc(N2CCCCC[C@@H]3[C@@H](F)[C@@H]32)c2cnc(-c3cc(N)cc4cc(F)c(F)c(C#C)c34)c(F)c2n1)[C@@]12CCCN1C[C@H](F)C2", "note": "[Example 59, 5-Ethynyl-6,7-difluoro-4-(8-fluoro-4-((1R,8S,9R)-9-fluoro-2-azabicyclo[6.1.0]nonan-2-yl)-2-(((2R,7aS)-2-fluorotetrahydro-1H-pyrrolizin-7a(5H)-yl)methoxy-d2)pyrido[4,3-d]pyrimidin-7-yl)naphthalen-2-amine]", "IC50": "500 to 10000"},
      {"smiles": "C#Cc1c(F)ccc2cc(N)cc(-c3ncc4c(N5CCCCC6C5C6(F)F)nc(OC[C@@]56CCCN5C[C@H](F)C6)nc4c3F)c12", "note": "(stereo partly drawn) [Example 57, 4-(4-(8,8-Difluoro-2-azabicyclo[5.1.0]octan-2-yl)-8-fluoro-2-(((2R,7aS)-2-fluorotetrahydro-1H-pyrrolizin-7a(5H)-yl)methoxy)pyrido[4,3-d]pyrimidin-7-yl)-5-ethynyl-6-fluoronaphthalen-2-amine]", "IC50": "50 to 500"}
    ]}
  ]
}
